The text below walks through data of US8883782B2, “Spiro-tetracyclic ring compounds as beta-secretase modulators and methods of use” (Amgen Inc., priority 2010, dated 2014).

Test [1] concerns Aβ40 in conditioned medium of cells stably expressing Amyloid Precursor Protein (APP). Nature of the test: In vitro BACE cell-based assay (Aβ40 in conditioned medium, sandwich ELISA). The note with it: Homo sapiens, read-out: HEK cell assay. The method in brief:
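Quantification relied on pAb40/6E10 sandwich ELISA with Europium fluorescence counts, and IC50 was fitted versus concentration.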

Test [2] addresses Beta Secretase enzyme (BACE) (Homo sapiens, UniProt P56817). Nature of the test: In vitro enzymatic BACE FRET (fluorescence resonance energy transfer) assay. Format: biochemical. The note with it: average IC50, enzyme assay; read-out: BACE 1 FRET assay. The method in brief: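 Cleavage of a 50 nM fluorophore/quencher peptide FRET substrate by BACE for 1 h in 0.05 M acetate pH 4.2, 10% DMSO, 100 uM genapol. Reaction stopped with Tris to neutral pH before fluorescence reading.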

The mark [3] stands for this setting: HEK293, average IC50, HEK cells.

Read-outs that look alike come from different tables or passages of the source.

Sequence of Beta Secretase enzyme (BACE) (P56817 46-501, species assumed): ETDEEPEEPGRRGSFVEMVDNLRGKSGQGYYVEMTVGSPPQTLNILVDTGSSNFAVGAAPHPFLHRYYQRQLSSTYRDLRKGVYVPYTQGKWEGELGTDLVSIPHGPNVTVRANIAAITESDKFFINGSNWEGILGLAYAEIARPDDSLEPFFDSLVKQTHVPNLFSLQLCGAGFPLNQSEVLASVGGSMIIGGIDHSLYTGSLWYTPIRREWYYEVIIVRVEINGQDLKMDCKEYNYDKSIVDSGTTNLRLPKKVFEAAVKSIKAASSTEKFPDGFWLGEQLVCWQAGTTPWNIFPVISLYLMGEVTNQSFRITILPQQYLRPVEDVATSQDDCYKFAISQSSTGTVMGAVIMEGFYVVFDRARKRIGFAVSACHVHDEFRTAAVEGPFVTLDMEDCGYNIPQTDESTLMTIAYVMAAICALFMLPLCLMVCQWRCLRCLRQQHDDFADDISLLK

As to `CC(C)(O)C#Cc1cncc(-c2ccc3c(c2)[C@@]2(COC(N)=N2)c2cc(C4=CCOCC4)ncc2O3)c1` [Example 818, 4-(5-((5S)-2′-amino-3-(3,6-dihydro-2H-pyran-4-yl)spiro[chromeno[2,3-c]pyridine-5,4′-[1,3]oxazol]-7-yl)-3-pyridinyl)-2-methyl-3-butyn-2-ol], the IC50 is 0.152 µM in test [1] (HEK293, average IC50) and 0.0049 µM in test [2].
In the case of `Cc1ncc(-c2cc(F)c3c(c2)[C@]2(COC(N)=N2)c2cc(-c4ccc(F)nc4)ccc2O3)cn1` [Example 649, (4S)-4′-fluoro-7′-(6-fluoro-3-pyridinyl)-2′-(2-methyl-5-pyrimidinyl)spiro[1,3-oxazole-4,9′-xanthen]-2-amine], the IC50 in test [1] (setting [3]) came out at 0.118 µM; in test [2], 0.0198 µM.
Consider `NC1=N[C@@]2(CO1)c1cc(-c3cccnc3F)ccc1Oc1cnc(N3CCCC(F)(F)C3)cc12` [Example 430, (5S)-3-(3,3-difluoro-1-piperidinyl)-7-(2-fluoro-3-pyridinyl)spiro[chromeno[2,3-c]pyridine-5,4′-[1,3]oxazol]-2′-amine], for which the IC50 in test [1] (setting [3]) is 0.0069 µM; in test [2], 0.0006 µM.
For `NC1=N[C@]2(CS1)c1cc(-c3cccnc3F)ccc1Oc1cnc(C3=CCOCC3)cc12` [Example 613, (5R)-3-(3,6-dihydro-2H-pyran-4-yl)-7-(2-fluoro-3-pyridinyl)spiro[chromeno[2,3-c]pyridine-5,4′-[1,3]thiazol]-2′-amine] the same measures were 2.56 µM and 0.227 µM.
For `NC1=N[C@@]2(CS1)c1cc(-c3cccnc3F)ccc1Oc1ncc(Br)cc12` [Example 603, (5S)-3-bromo-7-(2-fluoro-3-pyridinyl)spiro[chromeno[2,3-b]pyridine-5,4′-[1,3]thiazol]-2′-amine] the same measures were 0.188 µM and 0.0087 µM.
With `N#CC1CN(c2cc3c(cn2)Oc2ccc(-c4cccnc4)cc2[C@@]32COC(N)=N2)C1` [Example 410, 1-((5S)-2′-amino-7-(3-pyridinyl)spiro[chromeno[2,3-c]pyridine-5,4′-[1,3]oxazol]-3-yl)-3-azetidinecarbonitrile], the IC50 in test [1] (setting [3]) is 0.128 µM; in test [2], 0.0287 µM.
Take `NC1=N[C@@]2(CO1)c1cc(-c3cccnc3)ccc1Oc1c(F)cc(N3CCCC3=O)cc12` [Example 792, 1-((4S)-2-amino-4′-fluoro-7′-(3-pyridinyl)spiro[1,3-oxazole-4,9′-xanthen]-2′-yl)-2-pyrrolidinone]: the IC50 in test [1] (HEK293, average IC50) worked out at 0.03 µM; in test [2], 0.0051 µM.
For `COc1ccc(-c2cc3c(cn2)Oc2ccc(-c4cccnc4F)cc2[C@@]32COC(N)=N2)cc1` [Example 568, (5S)-7-(2-fluoro-3-pyridinyl)-3-(4-methoxyphenyl)spiro[chromeno[2,3-c]pyridine-5,4′-[1,3]oxazol]-2′-amine], the results for the IC50 in test [1] (setting [3]) and in test [2] were 0.0295 µM and 0.0023 µM, respectively.
As for `NC1=NC2(CS1)c1cc(I)ccc1Oc1ncc(Br)cc12` (stereo not drawn) [Example 522, 3-bromo-7-iodospiro[chromeno[2,3-b]pyridine-5,4′-[1,3]thiazol]-2′-amine], the IC50 in test [1] (setting [3]) came out at 10 µM; in test [2] it was 4.5 µM.
In the case of `NC1=N[C@@]2(CO1)c1cc(-c3cncc(Cl)c3)ccc1Oc1c(F)cc(OCC3CCOCC3)cc12` [Example 211, (4S)-7′-(5-chloro-3-pyridinyl)-4′-fluoro-2′-(tetrahydro-2H-pyran-4-ylmethoxy)spiro[1,3-oxazole-4,9′-xanthen]-2-amine], the IC50 in test [1] (HEK293, average IC50) turned out to be 0.0082 µM; in test [2], 0.0006 µM.
For `Cc1cnccc1-c1cc2c(cn1)Oc1ccc(-c3cccnc3F)cc1[C@@]21COC(N)=N1` [Example 246, (5S)-7-(2-fluoro-3-pyridinyl)-3-(3-methyl-4-pyridinyl)spiro[chromeno[2,3-c]pyridine-5,4′-[1,3]oxazol]-2′-amine] the same measures were 0.291 µM and 0.0542 µM.
Regarding `COc1cc(F)c2c(c1)[C@]1(COC(N)=N1)c1cc(Br)c(F)cc1O2` [Example 523, (4S)-2′-bromo-3′,5′-difluoro-7′-methoxyspiro[1,3-oxazole-4,9′-xanthen]-2-amine], the IC50 was found to be 1.78 µM in test [1] (setting [3]) and 0.884 µM in test [2].
